# Legend:
# [1] = biological target: T1, NLRP3 (Homo sapiens, UniProt Q96P20); test: Human whole blood IL-1β release assay (LPS + nigericin, AlphaLisa); format: cell-based; design: Plate out 80 μl of whole blood containing 1 μg/ml of LPS; from tissue; host or cells: human whole blood from healthy volunteer donors; details: NLRP3 inhibitory activity, 1 μg/ml LPS, 3 hrs compound, nigericin 10 μM 1 hr, read-out: HWB IC50
# Experimental: For systemic delivery, the ability to inhibit NLRP3 when the compounds are present within the bloodstream is of great importance. For this reason, the NLRP3 inhibitory activity of a number of compounds in human whole blood was investigated in accordance with the following protocol.
# Human whole blood in Li-heparin tubes was obtained from healthy donors from a volunteer donor panel. • 1. Plate out 80 μl of whole blood containing 1 μg/ml of LPS in 96-well, clear bottom cell culture plate (Corning #3585) • 2. Add 10 μl compound (8 points half-log dilution with 10 μM top dose) or vehicle (DMSO 0.1% FAC) to the appropriate wells • 3. Incubate for 3 hrs at 37° C., 5% CO2 • 4. Add 10 μl nigericin (Sigma #N7143) (10 μM FAC) to all wells • 5. Incubate for 1 hr at 37° C., 5% CO2 • 6. […] IL-1β was measured according to the manufacturer protocol (Perkin Elmer-AlphaLisa IL-1 Kit AL220F-5000) • 8. IC50 data is fitted to a non-linear regression equation (log inhibitor vs response-variable slope 4-parameters)
# [2] = biological target: T1, NLRP3; test: THP-1 cells pyroptosis assay (LPS + nigericin, resazurin readout); format: cell-based; design: Seed THP-1 cells (25,000 cells/well) containing 1.0 μg/ml LPS; host or cells: THP-1 cells; details: NLRP3 inhibitory activity, 1.0 μg/ml LPS, 3 hrs compound, nigericin 5 μM 1 hr
# Experimental: THP-1 cells (ATCC #TIB-202) were grown in RPMI containing L-glutamine (Gibco #11835) supplemented with 1 mM sodium pyruvate (Sigma #S8636) and penicillin (100 units/ml)/streptomycin (0.1 mg/ml) (Sigma #P4333) in 10% Fetal Bovine Serum (FBS) (Sigma #F0804). The cells were routinely passaged and grown to confluency (˜10^6 cells/ml). On the day of the experiment, THP-1 cells were harvested and resuspended into RPMI medium (without FBS). The cells were then counted and viability (>90%) checked by Trypan blue (Sigma #T8154). Appropriate dilutions were made to give a concentration of 625,000 cells/ml. To this diluted cell solution was added LPS (Sigma #L4524) to give a […] Final Assay Concentration (FAC). 40 μl of the final preparation was aliquoted into each well of a 96-well plate. The plate thus prepared was used for compound screening.
# The following method step-by-step assay was followed for compound screening. • 1. Seed THP-1 cells (25,000 cells/well) containing 1.0 μg/ml LPS in 40 μl of RPMI medium (without FBS) in 96-well, black walled, clear bottom cell culture plates coated with poly-D-lysine (VWR #734-0317) • 2. Add 5 μl compound (8 points half-log dilution, with 10 μM top dose) or vehicle (DMSO 0.1% FAC) to the appropriate wells • 3. Incubate for 3 hrs at 37° C., 5% CO2 • 4. Add 5 μl nigericin (Sigma #N7143) (FAC 5 μM) to all wells • 5. Incubate for 1 hr at 37° C., 5% CO2 • 6. At the end of the incubation period, spin plates at 300×g for 3 mins and remove supernatant • 7. Then add 50 μl of resazurin (Sigma #R7017) (FAC 100 μM resazurin in RPMI medium without FBS) and incubate plates for a further 1-2 hrs at 37° C. and 5% CO2 • 8. Plates were read in an Envision reader at Ex 560 nm and Em 590 nm • 9. IC50 data is fitted to a non-linear regression equation (log inhibitor vs response-variable slope 4-parameters)
# T1 sequence (Q96P20 whole entry): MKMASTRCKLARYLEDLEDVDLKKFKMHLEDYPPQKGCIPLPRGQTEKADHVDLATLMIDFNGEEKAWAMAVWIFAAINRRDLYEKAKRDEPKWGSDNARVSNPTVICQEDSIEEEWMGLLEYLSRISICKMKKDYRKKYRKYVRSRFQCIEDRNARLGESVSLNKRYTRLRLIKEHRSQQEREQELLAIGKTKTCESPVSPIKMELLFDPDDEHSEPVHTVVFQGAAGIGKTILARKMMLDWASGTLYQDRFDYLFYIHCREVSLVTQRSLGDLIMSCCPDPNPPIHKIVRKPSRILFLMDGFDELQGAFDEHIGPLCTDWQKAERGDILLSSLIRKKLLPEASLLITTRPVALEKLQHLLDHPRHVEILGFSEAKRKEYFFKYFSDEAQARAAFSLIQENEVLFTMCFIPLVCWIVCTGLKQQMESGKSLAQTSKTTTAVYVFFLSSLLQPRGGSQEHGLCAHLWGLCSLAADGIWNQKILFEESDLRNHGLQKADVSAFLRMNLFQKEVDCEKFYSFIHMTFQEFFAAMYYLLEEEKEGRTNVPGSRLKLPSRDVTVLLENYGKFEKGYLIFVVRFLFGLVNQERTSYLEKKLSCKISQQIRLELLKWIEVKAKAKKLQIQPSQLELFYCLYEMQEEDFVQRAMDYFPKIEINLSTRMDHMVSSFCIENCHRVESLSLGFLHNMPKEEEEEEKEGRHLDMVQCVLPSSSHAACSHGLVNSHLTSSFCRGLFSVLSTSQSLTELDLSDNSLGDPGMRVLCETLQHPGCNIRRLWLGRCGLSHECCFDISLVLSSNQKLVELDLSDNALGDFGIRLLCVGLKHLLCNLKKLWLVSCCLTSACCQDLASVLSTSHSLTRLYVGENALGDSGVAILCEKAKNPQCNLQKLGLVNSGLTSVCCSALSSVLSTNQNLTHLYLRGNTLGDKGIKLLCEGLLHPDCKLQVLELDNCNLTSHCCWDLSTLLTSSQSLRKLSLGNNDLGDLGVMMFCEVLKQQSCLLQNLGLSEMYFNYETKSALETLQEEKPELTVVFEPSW
Compound,IC50 [1] [µM],IC50 [2] [µM]
"CC(C)c1cccc2c1CC(=O)NS(=O)(=O)c1ccn(n1)C(C)(C)COc1cc-2ccn1 [Example 1, 16,16-dimethyl-6-(propan-2-yl)-18-oxa-11λ^6-thia-10,15,20,24-tetraaza-tetracyclo[17-3-1-1^12,15.0^2,7]tetracosa-1(22),2(7),3,5,12(24),13,19(23),20-octaene-9,11,11-trione]",1 to 5,1 to 5
Cc1ccc(C(C)C)c2c1-c1ccnc(c1)OCC(C)(C)n1ccc(n1)S(=O)(=O)NC(=O)C2 [Example 2],0.5 to 1,1 to 5
CC(C)c1cccc2c1CC(=O)NS(=O)(=O)c1cc(CN(C)C)n(n1)CCCCCOc1cc-2ccn1 [Example 3],5 to 10,5 to 10
CC(C)c1cccc2c1CC(=O)NS(=O)(=O)c1ccn(n1)CCOc1cc-2ccn1 [Example 4],5 to 10,1 to 5
CC(C)c1cccc2c1CC(=O)NS(=O)(=O)c1cc(n(C(C)C)n1)CCOc1cc-2ccn1 [Example 10],1 to 5,1 to 5
CC(C)c1cccc2c1CC(=O)NS(=O)(=O)c1cc(cc(C(C)(C)O)c1)CCOc1cc-2ccn1 [Example 11],1 to 5,0.1 to 0.5
Cc1ccc(C(C)C)c2c1-c1ccnc(c1)OCC(C)(C)n1cc(F)c(n1)S(=O)(=O)NC(=O)C2 [Example 12],0.5 to 1,0.5 to 1
Cc1ccc(C(C)C)c2c1-c1ccnc(c1)OCCn1cc(F)c(n1)S(=O)(=O)NC(=O)C2 [Example 13],1 to 5,1 to 5
CC(C)c1cc(F)cc2c1CC(=O)NS(=O)(=O)c1nn(cc1F)C(C)(C)COc1cc-2ccn1 [Example 15],1 to 5,0.1 to 0.5
"CC(C)(O)c1cc2cc(c1)S(=O)(=O)NC(=O)Cc1c(ccc3c1CCC3)-c1ccnc(c1)OCC2 [Example 17, 17-(2-hydroxypropan-2-yl)-22-oxa-14λ^6-thia-13,24-diazapentacyclo-[21.3.1.1^15,19.0^2,10.0^5,9]octacosa-1(26),2,4,9,15,17,19(28),23(27),24-nonaene-12,14,14-trione]",1 to 5,0.5 to 1
COc1cn2nc1S(=O)(=O)NC(=O)Cc1c(cc(F)cc1C(C)C)-c1ccnc(c1)OCC2(C)C [Example 19],0.5 to 1,0.1 to 0.5
CC(C)c1cc(F)cc2c1CC(=O)NS(=O)(=O)c1nn(cc1F)C1(CC1)COc1cc-2ccn1 [Example 20],1 to 5,0.5 to 1
CC(C)c1cccc2c1CC(=O)NS(=O)(=O)c1cnn(c1)CCOc1cc-2ccn1 [Example 21],5 to 10,1 to 5
CC(C)c1cc(F)cc2c1CC(=O)NS(=O)(=O)c1cnn(c1)CCOc1cc-2ccn1 [Example 22],5 to 10,1 to 5
Cc1nn2cc1S(=O)(=O)NC(=O)Cc1c(cccc1C(C)C)-c1ccnc(c1)OCC2(C)C [Example 24],1 to 5,0.5 to 1
CC1(C)COc2cc(ccn2)-c2cccc(C3CC3)c2CC(=O)NS(=O)(=O)c2nn1cc2F [Example 27],0.5 to 1,1 to 5
CC(C)c1cccc2c1CC(=O)NS(=O)(=O)c1nn(cc1F)C(C)(C)CCOc1cc-2ccn1 [Example 31],1 to 5,1 to 5
CC(C)c1cccc2c1CC(=O)NS(=O)(=O)c1cn(cn1)C(C)(C)COc1cc-2ccn1 [Example 33],1 to 5,0.5 to 1
CC(C)c1cccc2c1CC(=O)NS(=O)(=O)c1cnn(n1)C(C)(C)COc1cc-2ccn1 [Example 36],1 to 5,1 to 5
CC(C)c1cccc2c1CC(=O)NS(=O)(=O)c1nn(c3ncccc13)C(C)(C)COc1cc-2ccn1 [Example 37],1 to 5,0.5 to 1
CC(C)c1cccc2c1CC(=O)NS(=O)(=O)c1nn(cc1F)-c1ncccc1COc1cc-2ccn1 [Example 38],1 to 5,1 to 5
CC(C)c1cc(F)cc2c1CC(=O)NS(=O)(=O)c1nn(c(C(=O)N(C)C)c1F)C(C)(C)COc1cc-2ccn1 [Example 39],1 to 5,1 to 5
CCN1CCc2c3nn(c2C1)C(C)(C)COc1cc(ccn1)-c1cc(F)cc(C(C)C)c1CC(=O)NS3(=O)=O [Example 40],1 to 5,1 to 5
CC(C)c1cc(F)cc2c1CC(=O)NS(=O)(=O)c1cc(C(=O)N(C)C)n(n1)C(C)(C)COc1cc-2ccn1 [Example 41],1 to 5,1 to 5
"CC(C)c1cccc2c1CC(=O)NS(=O)(=O)c1ccn(n1)CCOc1cc-2cnn1 [Example 44, 6-(propan-2-yl)-18-oxa-11λ^6-thia-10,15,20,21,24-pentaazatetracyclo-[17.3.1.1^12,15.0^2,7]tetracosa-1(22),2(7),3,5,12(24),13,19(23),20-octaene-9,11,11-trione]",5 to 10,1 to 5

# Reference: patent US20220389031A1, “MACROCYCLIC SULFONYLAMIDE DERIVATIVES USEFUL AS NLRP3 INHIBITORS” (Inflazome Limited, priority 2019, published 2022)
